Measured values reported in the NIST ThermoML archive (doi:10.1021/je4000372).
Numbers after ± are expanded uncertainties.

What was measured:
[1] = 101 kPa, Liquid; for viscosity: Capillary tube (Ostwald / Ubbelohde) method; for mass density: Pycnometric method
[2] = xn = mol fraction of the nth substance listed; conditions: 101 kPa, Liquid; for viscosity: Capillary tube (Ostwald / Ubbelohde) method; for mass density: Pycnometric method

| SMILES | viscosity ([1]; 293.15 K) [mPa·s] | mass density ([1]; 293.15 K) [kg/m3] | viscosity ([1]; 303.15 K) [mPa·s] | mass density ([1]; 303.15 K) [kg/m3] | viscosity ([1]; 313.15 K) [mPa·s] | mass density ([1]; 313.15 K) [kg/m3] | viscosity ([1]; 323.15 K) [mPa·s] | mass density ([1]; 323.15 K) [kg/m3] | viscosity ([1]; 333.15 K) [mPa·s] | mass density ([1]; 333.15 K) [kg/m3] | also measured |
| --- | --- | --- | --- | --- | --- | --- | --- | --- | --- | --- | --- |
| NCCO [2-aminoethan-1-ol] | 24.14 ± 0.76 | 1016.1 ± 2.1 | 14.88 ± 0.48 | 1008.4 ± 2.1 | 9.93 ± 0.32 | 1000.1 ± 2.1 | 6.89 ± 0.22 | 991.9 ± 2.1 | 4.97 ± 0.16 | 983.6 ± 2.1 | – |
| NCCO [2-aminoethan-1-ol] + CCCCOCCOCCO | – | – | – | – | – | – | – | – | – | – | viscosity ([2]; 293.15 K, x2 = 0): 24.14 ± 0.76 mPa·s; mass density ([2]; 293.15 K, x2 = 0): 1016.1 ± 2.1 kg/m3; viscosity ([2]; 303.15 K, x2 = 0): 14.88 ± 0.48 mPa·s; mass density ([2]; 303.15 K, x2 = 0): 1008.4 ± 2.1 kg/m3; viscosity ([2]; 313.15 K, x2 = 0): 9.93 ± 0.32 mPa·s; mass density ([2]; 313.15 K, x2 = 0): 1000.1 ± 2.1 kg/m3; viscosity ([2]; 323.15 K, x2 = 0): 6.89 ± 0.22 mPa·s; mass density ([2]; 323.15 K, x2 = 0): 991.9 ± 2.1 kg/m3; viscosity ([2]; 333.15 K, x2 = 0): 4.97 ± 0.16 mPa·s; mass density ([2]; 333.15 K, x2 = 0): 983.6 ± 2.1 kg/m3 |
| CCCCOCCOCCO [3,6-dioxa-1-decanol] | 5.84 ± 0.18 | 952.9 ± 2.1 | 4.23 ± 0.13 | 943.5 ± 2 | 3.22 ± 0.1 | 935.7 ± 2 | 2.51 ± 0.08 | 926.6 ± 2 | 2 ± 0.06 | 918.5 ± 2 | – |
| CCCCOCCOCCO [3,6-dioxa-1-decanol] + OCCN(CCO)CCO | – | – | – | – | – | – | – | – | – | – | viscosity ([2]; 293.15 K, x1 = 1): 5.84 ± 0.18 mPa·s; mass density ([2]; 293.15 K, x1 = 1): 952.9 ± 2.1 kg/m3; viscosity ([2]; 303.15 K, x1 = 1): 4.23 ± 0.13 mPa·s; mass density ([2]; 303.15 K, x1 = 1): 943.5 ± 2 kg/m3; viscosity ([2]; 313.15 K, x1 = 1): 3.22 ± 0.1 mPa·s; mass density ([2]; 313.15 K, x1 = 1): 935.7 ± 2 kg/m3; viscosity ([2]; 323.15 K, x1 = 1): 2.51 ± 0.08 mPa·s; mass density ([2]; 323.15 K, x1 = 1): 926.6 ± 2 kg/m3; viscosity ([2]; 333.15 K, x1 = 1): 2 ± 0.06 mPa·s; mass density ([2]; 333.15 K, x1 = 1): 918.5 ± 2 kg/m3 |
| OCCNCCO [diethanolamine] | 890.9 ± 49 | 1096.1 ± 2.3 | 382.2 ± 18 | 1089.8 ± 2.2 | 187.6 ± 7.4 | 1083.7 ± 2.2 | 99.11 ± 3.4 | 1077.4 ± 2.2 | 58.12 ± 1.9 | 1070.7 ± 2.2 | – |
| OCCNCCO [diethanolamine] + CCCCOCCOCCO | – | – | – | – | – | – | – | – | – | – | viscosity ([2]; 293.15 K, x2 = 0): 890.9 ± 49 mPa·s; mass density ([2]; 293.15 K, x2 = 0): 1096.1 ± 2.3 kg/m3; viscosity ([2]; 303.15 K, x2 = 0): 382.2 ± 18 mPa·s; mass density ([2]; 303.15 K, x2 = 0): 1089.8 ± 2.2 kg/m3; viscosity ([2]; 313.15 K, x2 = 0): 187.6 ± 7.4 mPa·s; mass density ([2]; 313.15 K, x2 = 0): 1083.7 ± 2.2 kg/m3; viscosity ([2]; 323.15 K, x2 = 0): 99.11 ± 3.4 mPa·s; mass density ([2]; 323.15 K, x2 = 0): 1077.4 ± 2.2 kg/m3; viscosity ([2]; 333.15 K, x2 = 0): 58.12 ± 1.9 mPa·s; mass density ([2]; 333.15 K, x2 = 0): 1070.7 ± 2.2 kg/m3 |
| OCCN(CCO)CCO [triethanolamine] | 917.6 ± 51 | 1124.3 ± 2.3 | 404.7 ± 19 | 1118.5 ± 2.3 | 203.9 ± 8.2 | 1112.8 ± 2.3 | 108.3 ± 3.8 | 1107.1 ± 2.3 | 64.2 ± 2.2 | 1101.5 ± 2.3 | – |
